Laboratory results reported in ChEMBL document CHEMBL1201862, “PubChem BioAssay data set” (2004).
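Where inhibition never reached the appropriate level, the endpoint shown equals the highest concentration tested. Otherwise, values were interpolated linearly from a five-concentration, 48-hour dose response in 96-well plates. GI50 marks 50% less growth.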 Active and inactive are the calls of the source. No stated cut-off is given here; in the data, active = GI50 up to about 1.1 µM and inactive = higher.

Columns and labels:
Test in all cases: NCI-60 cell line screen, 48 h
[1] = tested on: 786-0
[2] = tested on: A498
[3] = tested on: A549
[4] = tested on: ACHN
[5] = tested on: BT-549
[6] = tested on: CAKI-1
[7] = tested on: CCRF-CEM
[8] = tested on: COLO 205
[9] = tested on: DU-145
[10] = tested on: EKVX
[11] = tested on: HCC 2998
[12] = tested on: HCT-116
[13] = tested on: HCT-15
[14] = tested on: HL-60
[15] = tested on: HOP-62
[16] = tested on: HOP-92
[17] = tested on: Hs-578T
[18] = tested on: IGROV-1
[19] = tested on: K562
[20] = tested on: KM12
[21] = tested on: LOX IMVI
[22] = tested on: M14
[23] = tested on: MCF7
[24] = tested on: MDA-MB-231
[25] = tested on: MDA-MB-435
[26] = tested on: MDA-N
[27] = tested on: MOLT-4
[28] = tested on: Malme-3M
[29] = tested on: NCI-H23
[30] = tested on: NCI-H460
[31] = tested on: NCI-H522
[32] = tested on: NCI/ADR-RES
[33] = tested on: OVCAR-3
[34] = tested on: OVCAR-4
[35] = tested on: OVCAR-5
[36] = tested on: OVCAR-8
[37] = tested on: PC-3
[38] = tested on: RPMI-8226
[39] = tested on: SF-268
[40] = tested on: SF-295
[41] = tested on: SK-MEL-28
[42] = tested on: SK-MEL-2
[43] = tested on: SK-MEL-5
[44] = tested on: SK-OV-3
[45] = tested on: SN12C
[46] = tested on: SNB-19
[47] = tested on: SNB-75
[48] = tested on: SR
[49] = tested on: SW-620
[50] = tested on: T47D
[51] = tested on: TK-10
[52] = tested on: U-251
[53] = tested on: UACC-257
[54] = tested on: UACC-62
[55] = tested on: UO-31
[56] = tested on: HT-29
[57] = tested on: SF-539

Cc1cn(Cc2cccc(C3=NCCCN3)c2)c(=O)n(Cc2cccc(C3=NCCCN3)c2)c1=O
GI50 [1]: > 100 µM (inactive)
GI50 [2]: > 100 µM (inactive)
GI50 [3]: > 100 µM (inactive)
GI50 [4]: > 100 µM (inactive)
GI50 [5]: > 100 µM (inactive)
GI50 [6]: > 100 µM (inactive)
GI50 [7]: > 100 µM (inactive)
GI50 [8]: > 100 µM (inactive)
GI50 [9]: > 100 µM (inactive)
GI50 [10]: > 100 µM (inactive)
GI50 [11]: > 100 µM (inactive)
GI50 [12]: > 100 µM (inactive)
GI50 [13]: > 100 µM
GI50 [14]: > 100 µM (inactive)
GI50 [15]: > 100 µM (inactive)
GI50 [16]: > 100 µM (inactive)
GI50 [17]: > 100 µM (inactive)
GI50 [18]: > 100 µM (inactive)
GI50 [19]: > 100 µM (inactive)
GI50 [20]: > 100 µM (inactive)
GI50 [21]: > 100 µM (inactive)
GI50 [22]: > 100 µM (inactive)
GI50 [23]: > 100 µM (inactive)
GI50 [24]: > 100 µM (inactive)
GI50 [25]: > 100 µM (inactive)
GI50 [26]: > 100 µM (inactive)
GI50 [27]: > 100 µM (inactive)
GI50 [28]: > 100 µM (inactive)
GI50 [29]: > 100 µM (inactive)
GI50 [30]: > 100 µM (inactive)
GI50 [31]: > 100 µM (inactive)
GI50 [32]: > 100 µM (inactive)
GI50 [33]: > 100 µM (inactive)
GI50 [34]: > 100 µM (inactive)
GI50 [35]: > 100 µM (inactive)
GI50 [36]: > 100 µM (inactive)
GI50 [37]: > 100 µM (inactive)
GI50 [38]: > 100 µM (inactive)
GI50 [39]: > 100 µM (inactive)
GI50 [40]: > 100 µM (inactive)
GI50 [41]: > 100 µM (inactive)
GI50 [42]: > 100 µM (inactive)
GI50 [43]: > 100 µM (inactive)
GI50 [44]: > 100 µM (inactive)
GI50 [45]: 25.4 µM (inactive)
GI50 [46]: > 100 µM (inactive)
GI50 [47]: 83.6 µM (inactive)
GI50 [48]: > 100 µM (inactive)
GI50 [49]: > 100 µM (inactive)
GI50 [50]: > 100 µM (inactive)
GI50 [51]: > 100 µM (inactive)
GI50 [52]: > 100 µM (inactive)
GI50 [53]: > 100 µM (inactive)
GI50 [54]: > 100 µM (inactive)
GI50 [55]: > 100 µM (inactive)

CN(C)c1ccc(/C=C2\N=C(c3ccccc3)N(c3ccc4c(c3)Sc3cc(N5C(=O)/C(=C/c6ccc(N(C)C)cc6)N=C5c5ccccc5)ccc3N4)C2=O)cc1
GI50 [1]: 22.9 µM (inactive)
GI50 [2]: 16.8 µM (inactive)
GI50 [3]: 22.1 µM (inactive)
GI50 [4]: 16.7 µM (inactive)
GI50 [5]: 22.9 µM (inactive)
GI50 [6]: 17.9 µM (inactive)
GI50 [7]: 3.73 µM (inactive)
GI50 [8]: > 100 µM (inactive)
GI50 [9]: 22.1 µM (inactive)
GI50 [10]: 25.8 µM (inactive)
GI50 [11]: 19.6 µM (inactive)
GI50 [12]: 26.3 µM (inactive)
GI50 [13]: 49.2 µM
GI50 [14]: 27.5 µM (inactive)
GI50 [15]: 13.7 µM (inactive)
GI50 [16]: 18.3 µM (inactive)
GI50 [56]: 54.7 µM (inactive)
GI50 [17]: 27.1 µM (inactive)
GI50 [18]: 18.1 µM (inactive)
GI50 [19]: 29.6 µM (inactive)
GI50 [20]: > 100 µM (inactive)
GI50 [21]: 19.5 µM (inactive)
GI50 [22]: 21.2 µM (inactive)
GI50 [23]: 17 µM (inactive)
GI50 [24]: 18.2 µM (inactive)
GI50 [25]: 21.5 µM (inactive)
GI50 [26]: 53.8 µM (inactive)
GI50 [27]: 61.5 µM (inactive)
GI50 [30]: 23.9 µM (inactive)
GI50 [32]: 28.4 µM (inactive)
GI50 [33]: 12.2 µM (inactive)
GI50 [34]: 22.6 µM (inactive)
GI50 [35]: 18.8 µM (inactive)
GI50 [36]: 18.1 µM (inactive)
GI50 [37]: 16.9 µM (inactive)
GI50 [38]: 20.4 µM (inactive)
GI50 [39]: 19.2 µM (inactive)
GI50 [40]: 15.2 µM (inactive)
GI50 [57]: 17.5 µM (inactive)
GI50 [41]: 50.8 µM (inactive)
GI50 [42]: 18.6 µM (inactive)
GI50 [43]: 17.9 µM (inactive)
GI50 [44]: 13.6 µM (inactive)
GI50 [45]: 19.1 µM (inactive)
GI50 [46]: 17.5 µM (inactive)
GI50 [47]: 11.9 µM (inactive)
GI50 [48]: 90.6 µM (inactive)
GI50 [49]: 44.7 µM (inactive)
GI50 [50]: 19.6 µM (inactive)
GI50 [51]: 17.2 µM (inactive)
GI50 [52]: 15.6 µM (inactive)
GI50 [53]: 19.7 µM (inactive)
GI50 [54]: 16.6 µM (inactive)
GI50 [55]: 18.2 µM (inactive)
